According to patent publication US12472193B2, “Methods and compositions for treating and preventing respiratory related diseases and conditions with xylitol-headgroup lipid analogs” (National Jewish Health, priority 2017, dated 2025):
“Also recorded” adds a separate entry of the source.

Columns and labels:
RSV = test: Quantitative RSV plaque assay in HEp2 cells; assay type: cell-based, human RSV A2 strain; settings: for antiviral activity against RSV by plaque assay: 50 μg/mL lipid, HEp2, 37° C.
Experimental: Viral stocks were propagated in HEp2 cell monolayers using DMEM/Ham's F12 Medium (GIBCO), plus 5% bovine growth serum (Hyclone) with 1× penicillin streptomycin, and virus was purified using methods previously described [M. Numata, H. W. Chu, A. Dakhama, and D. R. Voelker, “Pulmonary surfactant phosphatidylglycerol inhibits respiratory syncytial virus-induced inflammation and infection.,” Proc. Natl. Acad. Sci. U.S.A., vol. 107, no. 1, pp. 320-5, 2010.]. Viral titers and growth were measured by plaque assays [J. L. McKimm-Breschkin, “A simplified plaque assay for respiratory syncytial virus—direct visualization of plaques without immunostaining,” 2004.]. The antiviral activity of xylitol-headgroup lipids was determined by in vitro RSV infection in the presence or absence of lipid and infectious particles were quantified by viral plaque assay. HEp2 cells were plated at a density of 1.8×10^6 per well in a 6 well plate 24 hours prior to infection in order to create a uniform monolayer. Cell monolayers were infected for 2 hours at 37° C. with serial dilutions of RSV alone and RSV in combination with 50 μg/mL of phospholipid. Following the 2-hour period of infection, the inoculum was removed and 3 mL of medium containing 0.3% agarose was added, allowed to solidify and placed in a 37° C. incubator for 6 days. On day 6 the cells were fixed overnight with formalin and then stained with a neutral red stain and viral plaques were quantified visually.
An optimized quantitative plaque assay (described for RSV by J. L. McKimm-Breschkin, “A simplified plaque assay for respiratory syncytial virus-direct visualization of plaques without immunostaining,” 2004) was applied to survey the ability of PX lipids to inhibit RSV infection. The human epithelial cell line, HEp2, was seeded at a density of 1.8×10^6 per well in a 6-well plate 24 hours in advance of infection. Reaction conditions for infection took place in serum-free medium and were combined before addition to cells. A standard dilution of virus alone was prepared and 50 μg/mL phospholipid in combination with RSV was also prepared. Cells were washed with PBS to remove any serum prior to infection and then 500 μL of virus in various combinations with lipids was added to each well and incubated at 37° C. for 2 hours. Plates were rotated every 20 minutes for even distribution of viral infection. After infection, the viral inoculum was removed and medium containing 0.3% agarose was added to each well and allowed to solidify then placed back into the incubator at 37° C. for 6 days. On day 6, cells were fixed overnight then the agarose layer was removed and wells were stained with neutral red and viral plaques counted. POPG is a known inhibitor of RSV infection in vitro and in vivo. […] Ester-linked saturated xylitol lipids composed the moderately effective antivirals. The sole xylitol analog that was determined ineffective was saturated and ether-linked.

TLR 7 = target: T1, TLR 7 (Mus musculus, UniProt P58681); test: polyU-induced TNFα secretion by RAW264.7 cells (TLR 7 antagonism); assay type: cell-based; settings: for antagonism of TLR 7 activation (TNFα release): 20 μg/mL polyU, 20 μg/mL phospholipid, 4 hours; for TLR7 antagonist activity: reduction in cytokine secretion vs activating TLR ligand alone
T1 construct: endogenous in cells; host or cells: RAW264.7 (ATCC)
T1 sequence (P58681 27-1050): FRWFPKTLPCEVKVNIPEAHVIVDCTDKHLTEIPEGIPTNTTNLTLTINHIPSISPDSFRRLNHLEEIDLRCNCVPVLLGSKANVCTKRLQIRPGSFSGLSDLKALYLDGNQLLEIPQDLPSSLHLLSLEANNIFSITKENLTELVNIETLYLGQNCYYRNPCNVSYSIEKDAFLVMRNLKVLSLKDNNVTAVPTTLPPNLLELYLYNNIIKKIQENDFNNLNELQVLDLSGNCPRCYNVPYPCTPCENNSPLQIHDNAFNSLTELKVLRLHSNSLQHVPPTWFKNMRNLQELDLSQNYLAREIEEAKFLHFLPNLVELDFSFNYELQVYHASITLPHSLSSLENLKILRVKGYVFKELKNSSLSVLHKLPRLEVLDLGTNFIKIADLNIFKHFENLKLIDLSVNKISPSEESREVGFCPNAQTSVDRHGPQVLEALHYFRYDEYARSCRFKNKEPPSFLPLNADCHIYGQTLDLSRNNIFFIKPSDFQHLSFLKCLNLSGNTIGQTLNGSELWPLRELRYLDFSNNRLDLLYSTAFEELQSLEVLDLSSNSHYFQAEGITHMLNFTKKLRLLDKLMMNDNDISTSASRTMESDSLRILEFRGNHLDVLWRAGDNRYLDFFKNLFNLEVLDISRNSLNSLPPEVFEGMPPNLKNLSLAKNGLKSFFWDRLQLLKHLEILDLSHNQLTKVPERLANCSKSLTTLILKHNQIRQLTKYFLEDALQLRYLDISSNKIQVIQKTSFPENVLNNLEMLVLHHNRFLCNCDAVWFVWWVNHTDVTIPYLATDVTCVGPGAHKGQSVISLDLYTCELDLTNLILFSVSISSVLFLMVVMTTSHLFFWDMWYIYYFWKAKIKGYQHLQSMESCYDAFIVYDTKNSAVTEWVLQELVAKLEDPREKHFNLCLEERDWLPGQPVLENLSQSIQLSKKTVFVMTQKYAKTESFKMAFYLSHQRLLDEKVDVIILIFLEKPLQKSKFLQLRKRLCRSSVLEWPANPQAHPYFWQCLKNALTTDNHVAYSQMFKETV
Experimental: The mouse macrophage cell line, RAW264.7, was obtained from ATCC and maintained in DMEM, supplemented with 10% bovine growth serum and 1× penicillin streptomycin. Cells were maintained at 37° C. with 5% carbon dioxide: 95% air atmosphere within the incubator. Experiments were completed in a 96-well plate where cells were seated at a density of 1×10^5 cells per well, 24 prior to stimulation with TLR agonists and antagonists. Lipids were dried under a stream of nitrogen, hydrated with phosphate-buffered saline (PBS) at 37° C. for one hour, followed by water bath sonication to create liposomes. Each condition for cell stimulation and antagonism was prepared in DMEM in a separate tube and consisted of: control, TLR agonist, TLR agonist+lipid, and lipid alone. 100 μL aliquots of medium+agonists+antagonists were added to each well and incubated at 37° C. for 4 hours. Subsequently, the media were collected, diluted and an enzyme-linked immunosorbent assay (ELISA) was performed to quantify TNFα release by cells.
TLR 7 is an intracellular receptor of the endosomal compartment. TLR 7 was the first innate immune receptor reported druggable with small molecules, however no breakthrough treatments have been discovered with TLR 7 agonists/antagonists yet (T. Y.-H. Wu, “Strategies for Designing Synthetic Immune Agonists,” Immunology, 2016). TLR 7 detects single-stranded RNA (ssRNA) within endosomal compartments. Xylitol lipids were assessed for antagonism of TLR 7 activation in the presence of the synthetic ssRNA analog, polyuridylic acid (polyU). The macrophage cell line, RAW264.7, was used to assess antagonist activity of PX analogs in a TLR 7-dependent manner. Cells were stimulated with 20 μg/mL polyU for 4 hours in the absence or presence of 20 μg/mL phospholipid. After a 4-hour stimulation media were collected and TNFα secretion was quantified by ELISA. […] Saturated, ester-linked phospholipids appear to be ineffective at antagonizing TLR 7 activation where as their unsaturated ester-linked and saturated ether-linked counterparts were effective.

Row | SMILES | antiviral activity against RSV by plaque assay (RSV) | antagonism of TLR 7 activation (TNFα release) (TLR 7) | TLR7 antagonist activity (TLR 7) | reduction of RSV viral infection by a factor of (RSV; 50 μg/ml lipid, 10^4 infectious virus/ml, HEp2)
1 | CCCCCCCCCCCCCCCCCC(=O)OCC(COP(=O)(O)OCC(O)C(O)C(O)CO)OC(=O)CCCCCCCCCCCCCCCCC (stereo not drawn) [DSPX, sn-1-stearoyl, sn-2-stearoyl sn-3 glycerol phosphoxylitol] | moderate antiviral activity | – | – | –
2 | CCCCCCCCCCCCCCCC(=O)OCC(COP(=O)(O)OCC(O)C(O)C(O)CO)OC(=O)CCCCCCCCCCCCCCC (stereo not drawn) [DPPX, sn-1-palmitoyl, sn-2-palmitoyl sn-3 glycerol phosphoxylitol] | moderate antiviral activity | – | – | –
3 | CCCCCCC=CCCCCCCCC(=O)OCC(COP(=O)(O)OCC(O)C(O)C(O)CO)OC(=O)CCCCCCCC=CCCCCCC (mixture of isomers) [16:1 DPPX, sn-1-palmitoleoyl, sn-2-palmitoleoyl sn-3 glycerol phosphoxylitol] | – | markedly inhibited | + (cutoff being greater than a 50% reduction in cytokine secretion compared to activating TLR ligand alone) | –
4 | CCCCCCCCCCCCCCOC[C@H](COP(=O)(O)OCC(O)C(O)C(O)CO)OCCCCCCCCCCCCCC (mixture of isomers) [14:0 DEPX, sn-1-O-myristyl, sn-2-O-myristyl sn-3 glycerol phosphoxylitol] | ineffective as an antiviral; also recorded: ineffective at preventing RSV infection; also recorded: did not inhibit plaque formation | markedly inhibited | + (cutoff being greater than a 50% reduction in cytokine secretion compared to activating TLR ligand alone) | –
5 | CCCCCCCCC=CCCCCCCCCOCC(COP(=O)(O)OCC(O)C(O)C(O)CO)OCCCCCCCCC=CCCCCCCCC (mixture of isomers) [18:1 DEPX, sn-1-O-octadecenyl, sn-2-O-octadecenyl sn-3 glycerol phosphoxylitol] | inhibit infection and propagation of RSV | markedly inhibited; also recorded: inhibit | + (cutoff being greater than a 50% reduction in cytokine secretion compared to activating TLR ligand alone) | –
6 | CCCCCCCCCCCCCC(=O)OC[C@H](COP(=O)(O)OCC(O)C(O)C(O)CO)OC(=O)CCCCCCCCCCCCC (mixture of isomers) [DMPX, sn-1-myristoyl, sn-2-myristoyl sn-3 glycerol phosphoxylitol] | moderate antiviral activity | – | – | –
7 | CCCCCC=CCC=CCCCCCCCC(=O)OCC(COP(=O)(O)OCC(O)C(O)C(O)CO)OC(=O)CCCCCCCC=CCC=CCCCCC (mixture of isomers) [18:2 DLPX, sn-1-linoleoyl, sn-2-linoleoyl sn-3 glycerol phosphoxylitol] | – | markedly inhibited | + (cutoff being greater than a 50% reduction in cytokine secretion compared to activating TLR ligand alone) | –
8 | CCCCCCCC/C=C\CCCCCCCC(=O)O[C@H](COC(=O)CCCCCCCCCCCCCCC)COP(=O)(O)OCC(O)CO (stereo partly drawn) [POPG, palmitoyl-oleoyl-phosphatidylglycerol, reference compound] | – | markedly inhibited | – | > 10^4
9 | CCCCCCCC/C=C\CCCCCCCC(=O)O[C@H](COC(=O)CCCCCCCCCCCCCCC)COP(=O)(O)OCC(O)C(O)C(O)CO (stereo partly drawn) [POPX, sn-1-palmitoyl, sn-2-oleoyly sn-3 glycerol phosphoxylitol] | – | – | + (cutoff being greater than a 50% reduction in cytokine secretion compared to activating TLR ligand alone) | –
10 | CCCCCCCCC=CCCCCCCCC(=O)OCC(COP(=O)(O)OCC(O)C(O)C(O)CO)OC(=O)CCCCCCCC=CCCCCCCCC (mixture of isomers) [DOPX, sn-1-oleoyl, sn-2-oleoyl sn-3 glycerol phosphoxylitol] | inhibit infection and propagation of RSV | markedly inhibited; also recorded: inhibit | + (cutoff being greater than a 50% reduction in cytokine secretion compared to activating TLR ligand alone) | –
11 | CCCCCCCC/C=C\CCCCCCCC(=O)O[C@H](COC(=O)CCCCCCCCCCCCCCC)COP(=O)([O-])OCC[N+](C)(C)C [POPC, 1-palmitoyl-2-oleoyl-sn-glycero-3-phosphocholine, reference compound] | ineffective as an antiviral | not affected | – | –
